# Measured values from patent publication US8283361B2 (AstraZeneca AB, priority 2008, dated 2012).
# Target: S. aureus GyrB ATPase (Staphylococcus aureus, UniProt P0A0K8)
# Assay: biochemical
# Conditions: compound at 1 μM; one value per test if tested more than once; read-out: % Inhibition of S. aureus GyrB ATPase
# Summary of the method: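 IC50 values derive from 10-point titrations of compound (in DMSO). Phosphate formed from 250 μM ATP was quantified by acidic molybdate/malachite green after quenching.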
# Chain of S. aureus GyrB ATPase (P0A0K8 whole entry): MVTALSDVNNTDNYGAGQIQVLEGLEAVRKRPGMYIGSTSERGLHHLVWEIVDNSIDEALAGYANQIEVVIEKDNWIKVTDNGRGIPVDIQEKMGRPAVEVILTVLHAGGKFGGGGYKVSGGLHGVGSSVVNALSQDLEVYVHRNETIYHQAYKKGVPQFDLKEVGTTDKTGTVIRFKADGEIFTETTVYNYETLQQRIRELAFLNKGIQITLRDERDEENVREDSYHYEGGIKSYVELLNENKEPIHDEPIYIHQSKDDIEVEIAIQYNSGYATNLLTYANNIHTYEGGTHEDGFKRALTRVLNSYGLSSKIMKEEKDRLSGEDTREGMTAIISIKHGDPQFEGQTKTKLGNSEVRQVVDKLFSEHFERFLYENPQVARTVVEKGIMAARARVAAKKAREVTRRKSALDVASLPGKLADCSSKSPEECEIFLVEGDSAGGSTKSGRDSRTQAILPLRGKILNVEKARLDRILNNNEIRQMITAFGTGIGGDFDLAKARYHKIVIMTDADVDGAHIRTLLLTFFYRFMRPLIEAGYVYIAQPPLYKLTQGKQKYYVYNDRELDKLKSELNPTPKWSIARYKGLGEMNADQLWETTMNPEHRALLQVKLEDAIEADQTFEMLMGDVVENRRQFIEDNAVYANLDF
# Chain of S. aureus GyrB ATPase (P0AES4 whole entry, further chain): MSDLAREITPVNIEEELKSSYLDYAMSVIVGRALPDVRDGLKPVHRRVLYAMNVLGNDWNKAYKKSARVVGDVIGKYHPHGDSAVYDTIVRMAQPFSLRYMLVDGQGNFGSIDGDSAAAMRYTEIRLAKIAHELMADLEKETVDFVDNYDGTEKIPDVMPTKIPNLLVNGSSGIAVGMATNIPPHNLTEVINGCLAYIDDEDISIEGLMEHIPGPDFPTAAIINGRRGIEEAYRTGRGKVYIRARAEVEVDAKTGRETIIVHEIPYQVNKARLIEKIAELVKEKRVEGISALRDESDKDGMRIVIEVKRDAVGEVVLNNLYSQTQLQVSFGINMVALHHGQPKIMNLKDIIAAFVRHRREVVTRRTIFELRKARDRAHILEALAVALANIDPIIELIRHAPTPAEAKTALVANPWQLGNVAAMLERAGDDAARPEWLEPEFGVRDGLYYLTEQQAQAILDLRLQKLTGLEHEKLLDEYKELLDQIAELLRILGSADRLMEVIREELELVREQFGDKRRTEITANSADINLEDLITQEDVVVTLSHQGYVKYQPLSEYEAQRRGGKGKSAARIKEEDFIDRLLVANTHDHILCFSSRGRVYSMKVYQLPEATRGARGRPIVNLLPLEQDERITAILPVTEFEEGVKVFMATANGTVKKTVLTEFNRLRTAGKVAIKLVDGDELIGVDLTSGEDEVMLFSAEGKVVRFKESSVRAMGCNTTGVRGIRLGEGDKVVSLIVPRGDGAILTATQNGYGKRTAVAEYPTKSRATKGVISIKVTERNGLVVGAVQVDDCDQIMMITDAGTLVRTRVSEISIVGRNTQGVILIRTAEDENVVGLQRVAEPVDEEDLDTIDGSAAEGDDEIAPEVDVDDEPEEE
row,SMILES,inhibition at 1 µM
1,"CCNC(=O)Nc1cc(-c2nc(C(F)(F)F)cs2)c(-c2ccc3c(c2)c(=O)c(C(=O)O)cn3[C@H]2CCN(C)C2)cn1 [Example 312, (S)-6-(6-(3-ethylureido)-4-(4-(trifluoromethyl)thiazol-2-yl)pyridin-3-yl)-1-(1-methylpyrrolidin-3-yl)-4-oxo-1,4-dihydroquinoline-3-carboxylic acid]",105%
2,"CCNC(=O)Nc1cc(-c2nc(C(F)(F)F)cs2)c(-c2ccc3c(c2)c(=O)c(C(=O)O)cn3CC2CCCN(C)C2)cn1 (stereo not shown) [Example 313, 6-(6-(3-ethylureido)-4-(4-(trifluoromethyl)thiazol-2-yl)pyridin-3-yl)-1-((1-methylpiperidin-3-yl)methyl)-4-oxo-1,4-dihydroquinoline-3-carboxylic acid]",103%
3,"CCNC(=O)Nc1cc(-c2nc(C(F)(F)F)cs2)c(-c2ccc3c(c2)c(=O)c(C(=O)O)cn3[C@H]2CCCC[C@@H]2N)cn1 [Example 314, 1-((1S,2S)-2-aminocyclohexyl)-6-(6-(3-ethylureido)-4-(4-(trifluoromethyl)thiazol-2-yl)pyridin-3-yl)-4-oxo-1,4-dihydroquinoline-3-carboxylic acid]",114%
4,"CCNC(=O)Nc1cc(-c2nc(C(F)(F)F)cs2)c(-c2ccc3c(c2)c(=O)c(C(=O)O)cn3CCCO)cn1 [Example 320, 6-(6-(3-Ethylureido)-4-(4-(trifluoromethyl)thiazol-2-yl)pyridin-3-yl)-1-(3-hydroxy-propyl)-4-oxo-1,4-dihydro-quinoline-3-carboxylic acid]",98%
5,"CCNC(=O)Nc1cc(-c2nc(C(F)(F)F)cs2)c(-c2ccc3c(c2)c(=O)c(C(=O)O)cn3C2CCOCC2)cn1 [Example 321, 6-(6-(3-Ethylureido)-4-(4-(trifluoromethyl)thiazol-2-yl)-pyridin-3-yl)-4-oxo-1-(tetrahydro-2H-pyran-4-yl)-1,4dihydroquinoline-3-carboxylic acid]",100%
6,"CCNC(=O)Nc1cc(-c2nc(C(F)(F)F)cs2)c(-c2ccc3c(c2)c(=O)c(C(=O)O)cn3C2CCCCC2)cn1 [Example 322, 1-Cyclohexyl-6-(6-(3-ethylureido)-4-(4-(trifluoro-methyl)thiazol-2-yl)pyridin-3-yl)-4-oxo-1,4-dihydroquinoline-3-carboxylic acid]",96%
7,"CCNC(=O)Nc1cc(-c2nc(C(F)(F)F)cs2)c(-c2ccc3c(c2)c(=O)c(C(=O)O)cn3C2CCN(C)CC2)cn1 [Example 323, 6-(6-(3-Ethylureido)-4-(4-(trifluoromethyl)thiazol-2-yl)pyridin-3-yl)-1-(1-methyl-piperidin-4-yl)-4-oxo-1,4-dihydro-quinoline-3-carboxylic acid]",106%
8,"CCNC(=O)Nc1cc(-c2nc(C(F)(F)F)cs2)c(-c2ccc3c(c2)c(=O)c(C(=O)NCCOC)cn3C2CC2)cn1 [Example 325, 1-Cyclopropyl-6-(6-(3-ethylureido)-4-(4-(trifluoromethyl)thiazol-2-yl)pyridin-3-yl)-N-(2-methoxyethyl)-4-oxo-1,4-dihydroquinoline-3-carboxamide]",96%
9,"CCNC(=O)Nc1cc(-c2nc(C(F)(F)F)cs2)c(-c2ccc3c(c2)c(=O)c(C(=O)NC2CC2)cn3C2CC2)cn1 [Example 326, N,1-Dicyclopropyl-6-(6-(3-ethylureido)-4-(4-(trifluoromethyl)thiazol-2-yl)pyridin-3-yl)-4-oxo-1,4-dihydroquino-line-3-carboxamide]",97%
10,"CCNC(=O)Nc1cc(-c2nc(C(F)(F)F)cs2)c(-c2ccc3c(c2)c(=O)c(C(=O)NC(COC)COC)cn3C2CC2)cn1 [Example 327, 1-Cyclopropyl-N-(1,3-dimethoxy-propan-2-yl)-6-(6-(3-ethylureido)-4-(4-(trifluoromethyl)thiazol-2-yl)pyridin-3-yl)-4-oxo-1,4-dihydroquinoline-3-carboxamide]",100%
11,"CCNC(=O)Nc1cc(-c2nc(C(F)(F)F)cs2)c(-c2ccc3c(c2)c(=O)c(C(=O)NCC(O)CO)cn3C2CC2)cn1 (stereo not shown) [Example 328, 1-Cyclopropyl-N-(2,3-dihydroxy-propyl)-6-(6-(3-ethylureido)-4-(4-(trifluoromethyl)thiazol-2-yl)pyridin-3-yl)-4-oxo-1,4-dihydroquinoline-3-carboxamide]",109%
12,CCNC(=O)Nc1cc(-c2nc(C(F)(F)F)cs2)c(-c2ccc3c(c2)c(=O)c(C(=O)NCCO)cn3Cc2noc(C3CC3)n2)cn1 [Example 329],97%
13,"CCNC(=O)Nc1cc(-c2nc(C(F)(F)F)cs2)c(-c2ccc3c(=O)c(C(=O)NCCO)cn(CC)c3c2)cn1 [Example 330, 1-Ethyl-7-{6-[(ethylcarbamoyl)amino]-4-[4-(trifluoromethyl)-1,3-thiazol-2-yl]pyridin-3-yl}-N-(2-hydroxyethyl)-4-oxo-1,4-dihydroquinoline-3-carboxamide]",109%
14,"CCNC(=O)Nc1cc(-c2nc(C(F)(F)F)cs2)c(-c2ccc3c(=O)c(C(=O)NCCCO)cn(CC)c3c2)cn1 [Example 331, 1-Ethyl-7-{6-[(ethylcarbamoyl)amino]-4-[4-(trifluoromethyl)-1,3-thiazol-2-yl]pyridin-3-yl}-N-(3-hydroxypropyl)-4-oxo-1,4-dihydroquinoline-3-carboxamide]",109%
15,"CCNC(=O)Nc1cc(-c2nc(C(F)(F)F)cs2)c(-c2ccc3c(=O)c(C(=O)NCCN(C)C)cn(CC)c3c2)cn1 [Example 332, N-[2-(dimethylamino)ethyl]-1-ethyl-7-{6-[(ethylcarbamoyl)amino]-4-[4-(trifluoromethyl)-1,3-thiazol-2-yl]pyridin-3-yl}-4-oxo-1,4-dihydroquinoline-3-carboxamide]",109%
16,"CCNC(=O)Nc1cc(-c2nc(C(F)(F)F)cs2)c(-c2ccc3c(=O)c(C(=O)NCCN4CCOCC4)cn(CC)c3c2)cn1 [Example 333, 1-Ethyl-7-{6-[(ethylcarbamoyl)amino]-4-[4-(trifluoromethyl)-1,3-thiazol-2-yl]pyridin-3-yl}-N-[2-(morpholin-4-yl)ethyl]-4-oxo-1,4-dihydroquinoline-3-carboxamide]",106%
17,"CCNC(=O)Nc1cc(-c2nc(C(F)(F)F)cs2)c(-c2ccc3c(=O)c(C(=O)NCCN4CCN(C)CC4)cn(CC)c3c2)cn1 [Example 334, 1-Ethyl-7-{6-[(ethylcarbamoyl)amino]-4-[4-(trifluoromethyl)-1,3-thiazol-2-yl]pyridin-3-yl}-N-[2-(4-methylpiperazin-1-yl)ethyl]-4-oxo-1,4-dihydroquinoline-3-carboxamide]",95%
18,"CCNC(=O)Nc1cc(-c2nc(C(F)(F)F)cs2)c(-c2ccc3c(=O)c(C(=O)NC)cn(CCC(C)C)c3c2)cn1 [Example 335, 7-{6-[(ethylcarbamoyl)amino]-4-[4-(trifluoromethyl)-1,3-thiazol-2-yl]pyridin-3-yl}-N-methyl-1-(3-methylbutyl)-4-oxo-1,4-dihydroquinoline-3-carboxamide]",107%
19,"CCNC(=O)Nc1cc(-c2nc(C(F)(F)F)cs2)c(-c2ccc3c(=O)c(C(=O)NCCO)cn(CCC(C)C)c3c2)cn1 [Example 336, 7-{6-[(ethylcarbamoyl)amino]-4-[4-(trifluoromethyl)-1,3-thiazol-2-yl]pyridin-3-yl}-N-(2-hydroxyethyl)-1-(3-methylbutyl)-4-oxo-1,4-dihydroquinoline-3-carboxamide]",109%
